Target: T1, Bifunctional methylenetetrahydrofolate dehydrogenase/cyclohydrolase, mitochondrial (Homo sapiens, UniProt P13995)
T1 sequence (P13995 whole entry): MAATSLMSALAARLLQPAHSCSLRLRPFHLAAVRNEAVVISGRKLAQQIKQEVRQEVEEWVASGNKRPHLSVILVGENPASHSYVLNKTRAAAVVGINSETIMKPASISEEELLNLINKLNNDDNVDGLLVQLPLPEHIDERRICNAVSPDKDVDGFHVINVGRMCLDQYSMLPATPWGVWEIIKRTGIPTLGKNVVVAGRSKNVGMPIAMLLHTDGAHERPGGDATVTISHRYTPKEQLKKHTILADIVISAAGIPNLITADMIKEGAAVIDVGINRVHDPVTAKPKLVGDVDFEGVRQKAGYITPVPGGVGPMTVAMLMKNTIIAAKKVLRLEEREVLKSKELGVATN
Experiment: Inhibition of MTHFD2
Procedure: DMSO was used as negative control. The serial dilution in DMSO, from compound DMSO stock solution, was created by dispensing from a 384-well low dead volume microplate (LP-0200, Labcyte) and a 384-well polypropylene microplate 2.0 (PP-0200, Labcyte). A total of 2.5 μL MTHFD2 was preincubated with compound or DMSO for 10 min. The enzymatic reaction was initiated by adding 2.5 μL folitixorin (F680350, Toronto Research Chemicals). For background control, 5 μL buffer was added to the well. […] The final concentrations of all reagents in a total assay volume of 5 μL per well were 50 mmol/L Tris-HCl at pH 8.0, 100 mmol/L NaCl, 5 mmol/L MgCl2, 25 mmol/L Na3PO4 at pH 8.0, 0.005% (v/v) Tween-20, and 2 mmol/L 2-mercaptoethanol. After 15 min reaction time, 5 μL NAD(P)H-Glo detection reagent (G9061 or G9062, Promega) was dispensed in all wells and the plate was incubated for 60 min. Luminescence was measured on a plate reader (Envision, PerkinElmer or Sense, Hidex). The light signal produced is proportional to the amount of NAD(P)H in the sample.

IC50: 36 nM
Structure (SMILES): Nc1nc(N)c(NC(=O)Nc2ccc(C(=O)N[C@@H](CCc3ccccc3)C(=O)O)nc2)c(=O)[nH]1 [US11504368, Example 14]
